These compounds were tested against T1, NS3 genotype 3a protease (UniProt Q81258) (assay: Ki determination, NS3 protease genotype 3a (fluorogenic depsipeptide substrate)). Conditions: 200 pM enzyme, 20 μM NS4A peptide, 2 μM substrate, read-out: Ki 3A.
T1 construct: Purified NS3 protease domain (amino acids 1-181) of the genotype 1b and 3a virus were generated as above; fused on or other part: N-terminal hexahistidine tag and rTEV protease cleavage site (vector p28-N6H-Tev-NS3(181)3)
T1 sequence (Q81258 1033-1663): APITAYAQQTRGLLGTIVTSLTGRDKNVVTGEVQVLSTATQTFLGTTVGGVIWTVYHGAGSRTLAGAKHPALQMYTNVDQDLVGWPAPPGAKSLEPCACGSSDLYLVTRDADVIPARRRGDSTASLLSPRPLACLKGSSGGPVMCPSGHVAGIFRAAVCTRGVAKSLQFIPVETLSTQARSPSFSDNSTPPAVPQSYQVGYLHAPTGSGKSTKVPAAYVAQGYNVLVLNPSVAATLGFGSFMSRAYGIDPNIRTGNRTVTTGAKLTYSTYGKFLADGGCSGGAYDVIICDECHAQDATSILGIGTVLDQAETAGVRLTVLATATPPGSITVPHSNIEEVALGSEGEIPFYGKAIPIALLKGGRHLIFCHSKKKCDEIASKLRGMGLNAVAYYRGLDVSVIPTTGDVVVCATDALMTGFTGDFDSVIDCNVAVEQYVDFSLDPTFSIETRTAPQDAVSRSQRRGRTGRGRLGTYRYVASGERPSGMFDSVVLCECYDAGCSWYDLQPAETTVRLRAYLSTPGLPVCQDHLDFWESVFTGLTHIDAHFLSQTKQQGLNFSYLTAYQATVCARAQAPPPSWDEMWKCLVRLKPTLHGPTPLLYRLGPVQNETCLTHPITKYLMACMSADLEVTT
Type: biochemical, hepatitis C virus
Procedure, shortened: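 Refolded His-tagged NS3 protease domain (aa 1-181, genotype 3a) at 200 pM with 20 μM NS4A peptide was pre-incubated 1 h at RT with inhibitor (100 nM–5 pM, 3-fold), then 2 μM FRET depsipeptide substrate was added in HEPES/40% glycerol/10% DMSO buffer. Steady-state rates over 90-120 min (ex 340/em 490 nm) versus inhibitor concentration gave Ki.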

Row | SMILES | Ki [nM]
1 | CC[C@@H]1[C@@H]2CN(C(=O)[C@H](C(C)(C)C)NC(=O)O[C@@H]3C[C@H]3CCCCCc3nc4ccc(OC)cc4nc3O2)[C@@H]1C(=O)N[C@]1(C(=O)NS(=O)(=O)C2(C)CC2)C[C@H]1C [Example 73, (1aR,5S,8S,9S,10R,22aR)-5-tert-butyl-9-ethyl-14-methoxy-N-[(1R,2R)-2-methyl-1-{[(1-methylcyclopropyl)sulfonyl]carbamoyl}cyclopropyl]-3,6-dioxo-1,1a,3,4,5,6,9,10,18,19,20,21,22,22a-tetradecahydro-8H-7,10-methanocyclopropa[18,19][1,10,3,6]dioxadiazacyclononadecino[11,12-b]quinoxaline-8-carboxamide] | 0.82
2 | CC[C@@H]1[C@@H]2CN(C(=O)[C@H](C(C)(C)C)NC(=O)O[C@@H]3C[C@H]3CCCCC(F)(F)c3nc4ccccc4nc3O2)[C@@H]1C(=O)N[C@]1(C(=O)NS(=O)(=O)C2CC2)C[C@H]1C(F)F [Example 53, (1aR,5S,8S,9S,10R,22aR)-5-tert-butyl-N-[(1R,2R)-1-[(cyclopropylsulfonyl)carbamoyl]-2-(difluoromethyl)cyclopropyl]-9-ethyl-18,18-difluoro-3,6-dioxo-1,1a,3,4,5,6,9,10,18,19,20,21,22,22a-tetradecahydro-8H-7,10-methanocyclopropa[18,19][1,10,3,6]dioxadiazacyclononadecino[11,12-b]quinoxaline-8-carboxamide] | 0.09
3 | CC[C@@H]1[C@@H]2CN(C(=O)[C@H](C(C)(C)C)NC(=O)O[C@@H]3C[C@H]3CCCCCc3nc4ccc(OC)cc4nc3O2)[C@@H]1C(=O)N[C@]1(C(=O)NS(=O)(=O)C2(F)CC2)C[C@H]1C(F)F [Example 74, (1aR,5S,8S,9S,10R,22aR)-5-tert-butyl-N-[(1R,2R)-2-(difluoromethyl)-1-{[(1-fluorocyclopropyl)sulfonyl]carbamoyl}cyclopropyl]-9-ethyl-14-methoxy-3,6-dioxo-1,1a,3,4,5,6,9,10,18,19,20,21,22,22a-tetradecahydro-8H-7,10-methanocyclopropa[18,19][1,10,3,6]dioxadiazacyclononadecino[11,12-b]quinoxaline-8-carboxamide] | 0.12
4 | CC[C@@H]1[C@@H]2CN(C(=O)[C@H](C(C)(C)C)NC(=O)O[C@]3(C)CCC[C@H]3CCCCCc3nc4ccc(OC)cc4nc3O2)[C@@H]1C(=O)N[C@]1(C(=O)NS(=O)(=O)C2(C)CC2)C[C@H]1CCF [Example 52, (3aR,7S,10S,11S,12R,24aR)-7-tert-butyl-11-ethyl-N-[(1R,2S)-2-(2-fluoroethyl)-1-{[(1-methylcyclopropyl)sulfonyl]carbamoyl}cyclopropyl]-16-methoxy-3a-methyl-5,8-dioxo-1,2,3,3a,5,6,7,8,11,12,20,21,22,23,24,24a-hexadecahydro-10H-9,12-methanocyclopenta[18,19][1,10,3,6]dioxadiazacyclononadecino[11,12-b]quinoxaline-10-carboxamide] | 1.3

Same assay, conditions: read-out: Ki 3A, 200 pM enzyme, 20 μM NS4A peptide, 2 μM substrate

Row | SMILES | Ki [nM]
5 | COc1ccc2nc3c(nc2c1)O[C@H]1CN(C(=O)[C@H](C(C)(C)C)NC(=O)O[C@@H]2C[C@H]2CCCCC3)[C@H](C(=O)N[C@]2(C(=O)NS(=O)(=O)C3CC3)C[C@H]2CC(F)F)[C@@H]1C [Example 24, (1aR,5S,8S,9S,10R,22aR)-5-tert-butyl-N-[(1R,2S)-1-[(cyclopropylsulfonyl)carbamoyl]-2-(2,2-difluoroethyl)cyclopropyl]-14-methoxy-9-methyl-3,6-dioxo-1,1a,3,4,5,6,9,10,18,19,20,21,22,22a-tetradecahydro-8H-7,10-methanocyclopropa[18,19][1,10,3,6]dioxadiazacyclononadecino[11,12-b]quinoxaline-8-carboxamide] | 0.92
6 | COc1ccc2nc3c(nc2c1)O[C@H]1CN(C(=O)[C@H](C(C)(C)C)NC(=O)O[C@@H]2C[C@@H]4C[C@@H]4[C@H]2CCCCC3)[C@H](C(=O)N[C@]2(C(=O)NS(=O)(=O)C3(C)CC3)C[C@H]2C(F)F)[C@@H]1C [Example 49, (1aS,2aR,6S,9S,10S,11R,23aR,23bS)-6-tert-butyl-N-[(1R,2R)-2-(difluoromethyl)-1-{[(1-methylcyclopropyl)sulfonyl]carbamoyl}cyclopropyl]-15-methoxy-10-methyl-4,7-dioxo-1a,2,2a,4,5,6,7,10,11,19,20,21,22,23,23a,23b-hexadecahydro-1H,9H-8,11-methanocyclopropa[4′,5′]cyclopenta[1′,2′:18,19][1,10,3,6]dioxadiazacyclononade cino[11,12-b]quinoxaline-9-carboxamide] | 0.07

— US20150175655A1 (priority 2012, published 2015)
